From patent publication EP0647618A1, “NEW NON IONIC IODINE-CONTAINING DIMERS USEFUL AS X-RAY CONTRAST AGENTS, METHOD FOR THE PREPARATION THEREOF, AND GALENICAL COMPOSITIONS CONTAINING THEM” (CENTRO INVESTIGACION JUSTESA IMAGEN S.A., priority 1993, dated 1994)

Key:
[1] = physchem; assay type: physicochemical; conditions: for solubility: water
Protocol: (§1) On the other hand, radiologists need compounds with a wide range of uses: for example, angiography, urography, myelography, cisternography, lymphography, cardiography and gastrography. The products according to this invention fulfil the requirements for the above uses, as they have high water solubility, normally higher than 60% (w/v), which, in some cases, is as high as 100% at 20°C, without showing any tendency to crystallize. They also have a very low general toxicity, stated as the average lethal dose for the rat, DL₅₀.

[2] = test system: RAT; assay: General toxicity, average lethal dose (DL50) in the rat, i.v.; assay type: in vivo
Protocol: as §1

[3] = Osmolality of aqueous solution at 300 mg I/ml; assay type: physicochemical; conditions: for OSMOLALITY mOsm/kg at 300 mg I/ml: 300 mg I/ml (Table II); for OSMOLALITY 37°C mOsm/kg at 300 mg I/ml: 300 mg I/ml (Table I)
[4] = Viscosity of aqueous solution at 300 mg I/ml; assay type: physicochemical; conditions: for VISCOSITY 37°C mPa.s 300 mg I/ml: 300 mg I/ml (Table I); for VISCOSITY mPas (37°C) at 300 mg I/ml: 300 mg I/ml (Table II)

Row | SMILES | SOLUBILITY IN WATER at 20° [1] [%] | solubility [1] [mg/mL] | DL50 (RAT) via i.v. g I/kg [2] [g I/kg] | OSMOLALITY mOsm/kg at 300 mg I/ml [3] [mOsm/kg] | OSMOLALITY 37°C mOsm/kg at 300 mg I/ml [3] [mOsm/kg] | VISCOSITY 37°C mPa.s 300 mg I/ml [4] [mPa.s] | VISCOSITY mPas (37°C) at 300 mg I/ml [4] [mPas]
1 | O=C(CN(CCO)CC(=O)Nc1c(I)c(C(=O)NC(CO)C(O)CO)c(I)c(C(=O)NC(CO)C(O)CO)c1I)Nc1c(I)c(C(=O)NCCO)c(I)c(C(=O)NCCO)c1I (stereo not drawn) [ICJ-1592] | > 60 | > 600 | > 20 | 151 | 151 | 8.4 | 8.4
2 | CN(C(=O)CN(CCO)CC(=O)N(C)c1c(I)c(C(=O)NCC(O)CO)c(I)c(C(=O)NCC(O)CO)c1I)c1c(I)c(C(=O)NCC(O)CO)c(I)c(C(=O)NCC(O)CO)c1I (stereo not drawn) [ICJ-1692, N,N'-Bis-{3,5-bis-[N-(2,3-dihydroxypropyl)carbamoyl]-2,4,6-triiodophenyl}-N,N'-dimethyl-3-(2-hydroxethyl)-3-azapentanediamide] | > 60 | > 600 | > 20 | 174 | 174 | 9.3 | 9.3
3 | CC(=O)N(CC(O)CN(C(C)=O)c1c(I)c(C(=O)NCC(O)CO)c(I)c(C(=O)NCC(O)CO)c1I)c1c(I)c(C(=O)NCC(O)CO)c(I)c(C(=O)NCC(O)CO)c1I (stereo not drawn) [IODIXANOL, Iodixanol, reference compound] |  | > 600 | > 20 |  | 190 | 8.7 | 
